Patent publication US20260184710A1, “CASITAS B-LINEAGE LYMPHOMA PROTOONCOGENE B (CBL-B) DEGRADING COMPOUNDS AND ASSOCIATED METHODS OF USE” (Arvinas Operations, Inc., priority 2022, published 2026)

Columns and labels:
Cbl-b [1] = molecular target: T1, Cbl-b (Homo sapiens, UniProt Q13191); test: Cbl-b Degradation Method A (FACS, anti-Cbl-b antibody staining); assay type: cell-based; conditions: Cbl-b-HiBit KI Jurkat Cells, incubated at least 20 hours; for DC50: half maximal degradation, read-out: Cbl-b Degredation Method A IC50; for Dmax: Jurkat, maximum degradation observed, read-out: Cbl-b Degredation Method A Dmax (%)
T1 construct: Cbl-b-HiBit KI Jurkat Cells were purchased from Promega; host or cells: Cbl-b-HiBiT knock-in Jurkat cells
How it was run: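 Readout is flow cytometry of fixed, permeabilized cells immunostained for Cbl-b (primary 1:200, AF488 secondary). Cells were Cbl-b-HiBit knock-in Jurkat, exposed to compound ≥20 h at 37 °C; half-maximal degradation concentration (DC50) and maximal degradation (Dmax) calculated relative to control.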

Cbl-b [2] = molecular target: T1, Cbl-b; test: Cbl-b Degradation Method B (Nano-Glo HiBiT lytic detection); assay type: cell-based; conditions: Cbl-b-HiBit KI Jurkat Cells, incubated at least 6-24 hours; for DC50: half maximal degradation, read-out: Cbl-b Degredation Method B IC50
How it was run: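 An 11-point, 3-fold compound dilution was applied for 6-24 hours to Jurkat cells carrying HiBiT-tagged endogenous Cbl-b. Lytic HiBiT luminescence quantified residual protein. Outputs are DC50 and Dmax relative to DMSO control.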

T1 sequence (Q13191 whole entry): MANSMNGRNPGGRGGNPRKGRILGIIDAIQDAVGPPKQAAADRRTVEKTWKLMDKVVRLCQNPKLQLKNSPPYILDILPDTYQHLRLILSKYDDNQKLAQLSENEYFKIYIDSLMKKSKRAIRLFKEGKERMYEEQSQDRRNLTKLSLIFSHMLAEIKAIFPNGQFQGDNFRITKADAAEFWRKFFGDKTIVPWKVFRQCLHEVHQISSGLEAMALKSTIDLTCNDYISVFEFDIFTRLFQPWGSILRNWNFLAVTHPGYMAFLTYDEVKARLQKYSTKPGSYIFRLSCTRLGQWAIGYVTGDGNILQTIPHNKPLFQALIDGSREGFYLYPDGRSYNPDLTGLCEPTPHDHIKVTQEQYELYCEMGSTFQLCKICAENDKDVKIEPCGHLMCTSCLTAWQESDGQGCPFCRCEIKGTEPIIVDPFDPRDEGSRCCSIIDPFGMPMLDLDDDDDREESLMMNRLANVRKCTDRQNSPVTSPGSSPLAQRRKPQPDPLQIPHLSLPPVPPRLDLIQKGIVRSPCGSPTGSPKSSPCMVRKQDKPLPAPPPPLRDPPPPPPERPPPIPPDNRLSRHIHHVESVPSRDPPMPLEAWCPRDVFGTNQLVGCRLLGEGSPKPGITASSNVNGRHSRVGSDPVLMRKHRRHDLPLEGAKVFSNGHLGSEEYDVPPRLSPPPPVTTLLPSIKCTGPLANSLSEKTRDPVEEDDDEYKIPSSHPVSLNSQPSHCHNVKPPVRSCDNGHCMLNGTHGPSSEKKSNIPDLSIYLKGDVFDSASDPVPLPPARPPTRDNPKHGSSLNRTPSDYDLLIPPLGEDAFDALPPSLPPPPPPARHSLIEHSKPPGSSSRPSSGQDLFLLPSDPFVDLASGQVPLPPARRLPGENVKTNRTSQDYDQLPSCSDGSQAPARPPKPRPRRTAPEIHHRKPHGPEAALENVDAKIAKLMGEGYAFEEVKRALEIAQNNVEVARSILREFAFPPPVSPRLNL

SMILES | DC50 (Cbl-b [1]) | Dmax (Cbl-b [1]) | DC50 (Cbl-b [2]) | Dmax (Cbl-b [2]; maximum degradation observed, read-out: Cbl-b Degredation Method B Dmax (%))
Cc1cc(N2CCC(O[C@H]3CC[C@H](CN4CCC5(CCN(c6cc7c(c(C(F)(F)F)c6)CN(c6cccc([C@]8(Cc9nncn9C)C[C@@H](C#N)C8)c6)C7=O)C5)C4)CC3)CC2)c(F)c2c1C(=O)N(C1CCC(=O)NC1=O)C2 (stereo partly shown) [Example 188, (1r,3r)-3-[(4-methyl-4H-1,2,4-triazol-3-yl)methyl]-3-{3-[1-oxo-6-(7-{[(1r,4r)-4-({1-[2-(2,6-dioxopiperidin-3-yl)-4-fluoro-7-methyl-1-oxo-2,3-dihydro-1H-isoindol-5-yl]piperidin-4-yl}oxy)cyclohexyl]methyl}-2,7-diazaspiro[4.4]nonan-2-yl)-4-(trifluoromethyl)-2,3-dihydro-1H-isoindol-2-yl]phenyl}cyclobutane-1-carbonitrile] | – | 35 to 70% | < 5 nM | 35 to 70%
Cn1cnnc1CC1(c2cccc(N3Cc4c(cc(N5CCC(C6CCN(c7ccc8c(c7)C(=O)N(C7CCC(=O)NC7=O)C8=O)CC6)CC5)cc4C(F)(F)F)C3=O)c2)COC1 (stereo not shown) [Example 124, 2-(2,6-dioxopiperidin-3-yl)-5-{1′-[2-(3-{3-[(4-methyl-4H-1,2,4-triazol-3-yl)methyl]oxetan-3-yl}phenyl)-3-oxo-7-(trifluoromethyl)-2,3-dihydro-1H-isoindol-5-yl]-[4,4′-bipiperidin]-1-yl}-2,3-dihydro-1H-isoindole-1,3-dione] | > 500 nM | – | > 500 nM | –
CC1c2nc(N3CCC(O[C@H]4CC[C@H](CN5CCN(Cc6cc7c(c(C(F)(F)F)c6)CN(c6cccc(C8(Cc9nncn9C9CC9)COC8)c6)C7=O)CC5)CC4)CC3)ccc2C(=O)N1C1CCC(=O)NC1=O (stereo partly shown) [Example 211, 3-[7-methyl-5-oxo-2-(4-{[(1r,4r)-4-[(4-{[2-(3-{3-[(4-cyclopropyl-4H-1,2,4-triazol-3-yl)methyl]oxetan-3-yl}phenyl)-3-oxo-7-(trifluoromethyl)-2,3-dihydro-1H-isoindol-5-yl]methyl}piperazin-1-yl)methyl]cyclohexyl]oxy}piperidin-1-yl)-5H,6H,7H-pyrrolo[3,4-b]pyridin-6-yl]piperidine-2,6-dione] | < 5 nM | < 35% | > 500 nM | –

Results, then the compound that gave them:

DC50 (Cbl-b [1]) | Dmax (Cbl-b [1]) | DC50 (Cbl-b [2]) | Dmax (Cbl-b [2]; maximum degradation observed, read-out: Cbl-b Degredation Method B Dmax (%)) | SMILES
> 500 nM | < 35% | > 500 nM | – | C[C@H]1C[C@@H](CN2CCN(c3cccc4c3C(=O)N(C3CCC(=O)NC3=O)C4=O)CC2)CN(Cc2cc3c(c(C(F)(F)F)c2)CN(c2cccc(C4(Cc5nncn5C)COC4)c2)C3=O)C1 (stereo partly drawn) [Example 90, 2-(2,6-dioxopiperidin-3-yl)-4-(4-{[(3R,5S)-5-methyl-1-{[2-(3-{3-[(4-methyl-4H-1,2,4-triazol-3-yl)methyl]oxetan-3-yl}phenyl)-3-oxo-7-(trifluoromethyl)-2,3-dihydro-1H-isoindol-5-yl]methyl}piperidin-3-yl]methyl}piperazin-1-yl)-2,3-dihydro-1H-isoindole-1,3-dione]
> 500 nM | 35 to 70% | > 500 nM | – | Cn1cnnc1CC1(c2cccc(N3Cc4c(cc(CN5CCC(N6CCN(CC7CCN(c8ccc9c(c8)C(=O)N(C8CCC(=O)NC8=O)C9=O)CC7)CC6)CC5)cc4C(F)(F)F)C3=O)c2)COC1 (stereo not shown) [Example 103, 2-(2,6-dioxopiperidin-3-yl)-5-(4-{[4-(1-{[2-(3-{3-[(4-methyl-4H-1,2,4-triazol-3-yl)methyl]oxetan-3-yl}phenyl)-3-oxo-7-(trifluoromethyl)-2,3-dihydro-1H-isoindol-5-yl]methyl}piperidin-4-yl)piperazin-1-yl]methyl}piperidin-1-yl)-2,3-dihydro-1H-isoindole-1,3-dione]
50 to 500 nM | – | > 500 nM | – | Cn1cnnc1CC1(c2cccc(N3Cc4c(cc(N5CC(C6CCN(c7ccc8c(c7)C(=O)N(C7CCC(=O)NC7=O)C8=O)CC6)C5)cc4C(F)(F)F)C3=O)c2)COC1 (stereo not shown) [Example 129, 2-(2,6-dioxopiperidin-3-yl)-5-(4-{1-[2-(3-{3-[(4-methyl-4H-1,2,4-triazol-3-yl)methyl]oxetan-3-yl}phenyl)-3-oxo-7-(trifluoromethyl)-2,3-dihydro-1H-isoindol-5-yl]azetidin-3-yl}piperidin-1-yl)-2,3-dihydro-1H-isoindole-1,3-dione]
